Measured values from ChEMBL document CHEMBL5252613, “Discovery and anti-tumor activity of 4-(benzylamino)-6-(3,5-dimethylisoxazol-4-yl)quinolin-2(1H)-one (CG13250), a potent, selective and orally bioavailable BET bromodomain inhibitor” (Bioorg Med Chem Lett, 2023).
Activity calls are given as the source filed them. The calls are words filed in the database; no cut-off is given here.

Legend:
MV4-11 = experiment: Growth inhibition of human MV4-11 cells measured after 72 hrs; assay type: functional
[1] = target: T1, Bromodomain-containing protein 4 (Homo sapiens, UniProt O60885); experiment: Inhibition of BRD4 bromodomain 1/2 (unknown origin) assessed as dissociation constant by DiscoveRx BROMOscan assay
[2] = target: T1, Bromodomain-containing protein 4; experiment: Inhibition of BRD4 bromodomain 1/2 (unknown origin) by Alphascreen assay
[3] = AUC(0 to t) in CD-1 mouse plasma at 10 mg/kg, sc; assay type: ADME, organism-based; parameters: dose 10 mg/kg, route sc
[4] = Tmax in CD-1 mouse brain at 50 mg/kg, po; assay type: ADME, organism-based
[5] = Cmax in CD-1 mouse brain at 50 mg/kg, po; assay type: ADME, organism-based; parameters: dose 50 mg/kg, route po
[6] = Half-life in CD-1 mouse brain at 50 mg/kg, po; assay type: ADME, organism-based
[7] = AUC(0 to t) in CD-1 mouse brain at 50 mg/kg, po; assay type: ADME, organism-based; parameters: dose 50 mg/kg, route po
[8] = Tmax in rat plasma at 50 mg/kg, po; assay type: ADME, organism-based
[9] = Cmax in rat plasma at 50 mg/kg, po; assay type: ADME, organism-based; parameters: dose 50 mg/kg, route po
[10] = Half-life in rat plasma at 50 mg/kg, po; assay type: ADME, organism-based
[11] = AUC(0 to t) in rat plasma at 50 mg/kg, po; assay type: ADME, organism-based; parameters: dose 50 mg/kg, route po
[12] = Half-life in CD-1 mouse plasma at 10 mg/kg, sc; assay type: ADME, organism-based
[13] = Cmax in CD-1 mouse plasma at 10 mg/kg, sc; assay type: ADME, organism-based; parameters: dose 10 mg/kg, route sc
[14] = Tmax in CD-1 mouse plasma at 10 mg/kg, sc; assay type: ADME, organism-based
[15] = AUC(0 to t) in CD-1 mouse plasma at 50 mg/kg, po; assay type: ADME, organism-based; parameters: dose 50 mg/kg, route po
[16] = Half-life in CD-1 mouse plasma at 50 mg/kg, po; assay type: ADME, organism-based
[17] = Cmax in CD-1 mouse plasma at 50 mg/kg, po; assay type: ADME, organism-based; parameters: dose 50 mg/kg, route po
[18] = Tmax in CD-1 mouse plasma at 50 mg/kg, po; assay type: ADME, organism-based
Cytochrome P450 1A2 = target: T2, Cytochrome P450 1A2 (Homo sapiens, UniProt P05177); experiment: Inhibition of CYP1A2 (unknown origin) by fluorescence based assay; assay type: ADME
T2 sequence (P05177 whole entry): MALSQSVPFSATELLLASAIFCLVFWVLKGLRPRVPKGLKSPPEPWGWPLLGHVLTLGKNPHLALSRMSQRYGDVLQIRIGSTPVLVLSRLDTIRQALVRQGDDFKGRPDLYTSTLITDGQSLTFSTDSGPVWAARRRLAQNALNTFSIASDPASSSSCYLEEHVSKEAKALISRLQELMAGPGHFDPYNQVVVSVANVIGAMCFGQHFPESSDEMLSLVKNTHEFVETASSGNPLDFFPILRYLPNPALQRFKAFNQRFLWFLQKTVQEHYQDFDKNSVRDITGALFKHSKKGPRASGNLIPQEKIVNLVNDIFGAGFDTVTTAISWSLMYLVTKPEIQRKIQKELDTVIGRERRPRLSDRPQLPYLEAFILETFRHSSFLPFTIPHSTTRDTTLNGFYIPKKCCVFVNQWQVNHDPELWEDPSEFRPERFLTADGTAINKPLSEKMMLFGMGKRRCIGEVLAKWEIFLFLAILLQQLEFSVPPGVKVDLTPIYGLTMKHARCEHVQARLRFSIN

Cytochrome P450 2C9 = Cytochrome P450 2C9 (Homo sapiens, UniProt P11712); experiment: Inhibition of CYP2C9 (unknown origin) by fluorescence based assay; assay type: ADME
Cytochrome P450 2C19 = Cytochrome P450 2C19 (Homo sapiens, UniProt P33261); experiment: Inhibition of CYP2C19 (unknown origin) by fluorescence based assay; assay type: ADME
Cytochrome P450 2D6 = Cytochrome P450 2D6 (Homo sapiens, UniProt P10635); experiment: Inhibition of CYP2D6 (unknown origin) by fluorescence based assay; assay type: ADME
Cytochrome P450 3A4 = Cytochrome P450 3A4 (Homo sapiens, UniProt P08684); experiment: Inhibition of CYP3A4 (unknown origin) by fluorescence based assay; assay type: ADME
[19] = Stability in human liver microsomes assessed as half-life; assay type: ADME, Microsome
[20] = Stability in mouse liver microsomes assessed as half-life; assay type: ADME, Microsome
[21] = target: Non-receptor tyrosine-protein kinase TYK2 (Homo sapiens) (UniProt P29597); experiment: Inhibition of TYK2 (unknown origin) at 10 uM by DiscoverX KINOMEscan relative to control
[22] = target: Tyrosine-protein kinase JAK1 (Homo sapiens) (UniProt P23458); experiment: Inhibition of JAK1 JH2 (unknown origin) at 10 uM by DiscoverX KINOMEscan relative to control
[23] = target: Histone acetyltransferase p300 (Homo sapiens) (UniProt Q09472); experiment: Inhibition of EP300 (unknown origin) at 10 uM by DiscoverX BROMOscan assay
[24] = target: CREB-binding protein (Homo sapiens) (UniProt Q92793); experiment: Inhibition of CREBBP (unknown origin) at 10 uM by DiscoverX BROMOscan assay
Peregrin (Homo sapiens) = target: T3, Peregrin (Homo sapiens) (UniProt P55201); experiment: Inhibition of BRPF1 (unknown origin) at 10 uM by DiscoverX BROMOscan assay
T3 sequence (whole entry): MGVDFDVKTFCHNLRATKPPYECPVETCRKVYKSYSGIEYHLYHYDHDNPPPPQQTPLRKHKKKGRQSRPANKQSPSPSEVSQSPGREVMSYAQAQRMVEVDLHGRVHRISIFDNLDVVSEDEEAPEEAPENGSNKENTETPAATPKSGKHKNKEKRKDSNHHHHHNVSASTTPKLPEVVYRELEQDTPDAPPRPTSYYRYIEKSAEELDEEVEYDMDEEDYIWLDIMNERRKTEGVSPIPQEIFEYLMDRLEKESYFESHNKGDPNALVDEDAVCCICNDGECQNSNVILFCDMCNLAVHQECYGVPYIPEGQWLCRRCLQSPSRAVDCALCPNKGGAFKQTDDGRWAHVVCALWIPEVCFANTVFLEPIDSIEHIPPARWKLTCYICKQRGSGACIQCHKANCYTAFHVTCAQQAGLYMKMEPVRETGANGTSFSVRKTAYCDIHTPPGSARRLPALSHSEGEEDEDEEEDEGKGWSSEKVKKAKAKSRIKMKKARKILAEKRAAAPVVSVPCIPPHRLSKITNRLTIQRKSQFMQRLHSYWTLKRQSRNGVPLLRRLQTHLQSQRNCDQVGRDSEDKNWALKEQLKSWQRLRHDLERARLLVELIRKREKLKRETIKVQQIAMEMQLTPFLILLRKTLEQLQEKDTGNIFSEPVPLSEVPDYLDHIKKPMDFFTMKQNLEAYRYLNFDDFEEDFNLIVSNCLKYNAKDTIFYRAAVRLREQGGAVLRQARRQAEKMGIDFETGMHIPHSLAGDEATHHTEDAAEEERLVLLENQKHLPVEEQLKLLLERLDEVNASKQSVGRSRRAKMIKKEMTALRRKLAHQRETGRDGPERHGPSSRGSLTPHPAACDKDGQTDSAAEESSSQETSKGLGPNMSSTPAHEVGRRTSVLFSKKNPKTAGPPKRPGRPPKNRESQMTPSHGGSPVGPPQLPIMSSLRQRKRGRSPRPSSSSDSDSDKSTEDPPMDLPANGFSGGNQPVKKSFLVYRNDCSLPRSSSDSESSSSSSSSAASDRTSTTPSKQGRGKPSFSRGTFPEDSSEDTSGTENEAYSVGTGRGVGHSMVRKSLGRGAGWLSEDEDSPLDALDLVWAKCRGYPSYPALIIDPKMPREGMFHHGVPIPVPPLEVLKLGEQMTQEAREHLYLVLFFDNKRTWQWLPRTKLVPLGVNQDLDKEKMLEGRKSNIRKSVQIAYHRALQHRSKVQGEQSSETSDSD

[25] = target: T4, Bromodomain-containing protein 9 (Homo sapiens) (UniProt Q9H8M2); experiment: Inhibition of BRD9 (unknown origin) at 10 uM by DiscoverX BROMOscan assay
T4 sequence (whole entry): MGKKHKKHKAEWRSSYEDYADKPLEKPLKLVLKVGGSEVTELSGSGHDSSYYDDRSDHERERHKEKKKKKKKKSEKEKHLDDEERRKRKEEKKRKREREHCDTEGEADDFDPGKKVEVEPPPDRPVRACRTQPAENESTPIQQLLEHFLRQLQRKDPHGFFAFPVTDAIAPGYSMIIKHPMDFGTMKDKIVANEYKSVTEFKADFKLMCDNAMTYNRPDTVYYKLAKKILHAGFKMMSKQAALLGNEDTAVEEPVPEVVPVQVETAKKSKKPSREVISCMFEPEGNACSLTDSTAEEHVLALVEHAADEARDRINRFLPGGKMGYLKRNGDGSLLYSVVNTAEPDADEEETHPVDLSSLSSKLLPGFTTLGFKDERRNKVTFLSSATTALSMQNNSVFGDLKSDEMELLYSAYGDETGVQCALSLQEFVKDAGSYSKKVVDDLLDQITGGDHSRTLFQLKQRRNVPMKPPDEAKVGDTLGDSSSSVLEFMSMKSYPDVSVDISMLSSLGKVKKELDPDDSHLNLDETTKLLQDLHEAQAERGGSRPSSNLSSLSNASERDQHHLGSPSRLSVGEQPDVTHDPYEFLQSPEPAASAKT

[26] = Toxicity in mouse xenografted with human Kasumi 1 cells assessed as effect on body weight at 50 mg/kg, po administered once a day for 15 days starting from 25 days after transplantation; assay type: organism-based; details: in vivo, 360 h, time 15 day
[27] = Toxicity in mouse xenografted with human Kasumi 1 cells assessed as signs of toxicity at 50 mg/kg, po administered once a day for 15 days starting from 25 days after transplantation; assay type: organism-based; details: in vivo, 360 h, time 15 day
Kasumi 1 = experiment: Antitumor activity against human Kasumi 1 cells xenografted in mouse assessed as tumor growth inhibition at 50 mg/kg, po administered once a day for 15 days starting from 25 days after transplantation relative to control; assay type: functional; details: Kasumi 1, 360 h, time 15 day, read-out: TGI

Chain of CREB-binding protein (Homo sapiens) (Q92793 2-2442 limits assumed): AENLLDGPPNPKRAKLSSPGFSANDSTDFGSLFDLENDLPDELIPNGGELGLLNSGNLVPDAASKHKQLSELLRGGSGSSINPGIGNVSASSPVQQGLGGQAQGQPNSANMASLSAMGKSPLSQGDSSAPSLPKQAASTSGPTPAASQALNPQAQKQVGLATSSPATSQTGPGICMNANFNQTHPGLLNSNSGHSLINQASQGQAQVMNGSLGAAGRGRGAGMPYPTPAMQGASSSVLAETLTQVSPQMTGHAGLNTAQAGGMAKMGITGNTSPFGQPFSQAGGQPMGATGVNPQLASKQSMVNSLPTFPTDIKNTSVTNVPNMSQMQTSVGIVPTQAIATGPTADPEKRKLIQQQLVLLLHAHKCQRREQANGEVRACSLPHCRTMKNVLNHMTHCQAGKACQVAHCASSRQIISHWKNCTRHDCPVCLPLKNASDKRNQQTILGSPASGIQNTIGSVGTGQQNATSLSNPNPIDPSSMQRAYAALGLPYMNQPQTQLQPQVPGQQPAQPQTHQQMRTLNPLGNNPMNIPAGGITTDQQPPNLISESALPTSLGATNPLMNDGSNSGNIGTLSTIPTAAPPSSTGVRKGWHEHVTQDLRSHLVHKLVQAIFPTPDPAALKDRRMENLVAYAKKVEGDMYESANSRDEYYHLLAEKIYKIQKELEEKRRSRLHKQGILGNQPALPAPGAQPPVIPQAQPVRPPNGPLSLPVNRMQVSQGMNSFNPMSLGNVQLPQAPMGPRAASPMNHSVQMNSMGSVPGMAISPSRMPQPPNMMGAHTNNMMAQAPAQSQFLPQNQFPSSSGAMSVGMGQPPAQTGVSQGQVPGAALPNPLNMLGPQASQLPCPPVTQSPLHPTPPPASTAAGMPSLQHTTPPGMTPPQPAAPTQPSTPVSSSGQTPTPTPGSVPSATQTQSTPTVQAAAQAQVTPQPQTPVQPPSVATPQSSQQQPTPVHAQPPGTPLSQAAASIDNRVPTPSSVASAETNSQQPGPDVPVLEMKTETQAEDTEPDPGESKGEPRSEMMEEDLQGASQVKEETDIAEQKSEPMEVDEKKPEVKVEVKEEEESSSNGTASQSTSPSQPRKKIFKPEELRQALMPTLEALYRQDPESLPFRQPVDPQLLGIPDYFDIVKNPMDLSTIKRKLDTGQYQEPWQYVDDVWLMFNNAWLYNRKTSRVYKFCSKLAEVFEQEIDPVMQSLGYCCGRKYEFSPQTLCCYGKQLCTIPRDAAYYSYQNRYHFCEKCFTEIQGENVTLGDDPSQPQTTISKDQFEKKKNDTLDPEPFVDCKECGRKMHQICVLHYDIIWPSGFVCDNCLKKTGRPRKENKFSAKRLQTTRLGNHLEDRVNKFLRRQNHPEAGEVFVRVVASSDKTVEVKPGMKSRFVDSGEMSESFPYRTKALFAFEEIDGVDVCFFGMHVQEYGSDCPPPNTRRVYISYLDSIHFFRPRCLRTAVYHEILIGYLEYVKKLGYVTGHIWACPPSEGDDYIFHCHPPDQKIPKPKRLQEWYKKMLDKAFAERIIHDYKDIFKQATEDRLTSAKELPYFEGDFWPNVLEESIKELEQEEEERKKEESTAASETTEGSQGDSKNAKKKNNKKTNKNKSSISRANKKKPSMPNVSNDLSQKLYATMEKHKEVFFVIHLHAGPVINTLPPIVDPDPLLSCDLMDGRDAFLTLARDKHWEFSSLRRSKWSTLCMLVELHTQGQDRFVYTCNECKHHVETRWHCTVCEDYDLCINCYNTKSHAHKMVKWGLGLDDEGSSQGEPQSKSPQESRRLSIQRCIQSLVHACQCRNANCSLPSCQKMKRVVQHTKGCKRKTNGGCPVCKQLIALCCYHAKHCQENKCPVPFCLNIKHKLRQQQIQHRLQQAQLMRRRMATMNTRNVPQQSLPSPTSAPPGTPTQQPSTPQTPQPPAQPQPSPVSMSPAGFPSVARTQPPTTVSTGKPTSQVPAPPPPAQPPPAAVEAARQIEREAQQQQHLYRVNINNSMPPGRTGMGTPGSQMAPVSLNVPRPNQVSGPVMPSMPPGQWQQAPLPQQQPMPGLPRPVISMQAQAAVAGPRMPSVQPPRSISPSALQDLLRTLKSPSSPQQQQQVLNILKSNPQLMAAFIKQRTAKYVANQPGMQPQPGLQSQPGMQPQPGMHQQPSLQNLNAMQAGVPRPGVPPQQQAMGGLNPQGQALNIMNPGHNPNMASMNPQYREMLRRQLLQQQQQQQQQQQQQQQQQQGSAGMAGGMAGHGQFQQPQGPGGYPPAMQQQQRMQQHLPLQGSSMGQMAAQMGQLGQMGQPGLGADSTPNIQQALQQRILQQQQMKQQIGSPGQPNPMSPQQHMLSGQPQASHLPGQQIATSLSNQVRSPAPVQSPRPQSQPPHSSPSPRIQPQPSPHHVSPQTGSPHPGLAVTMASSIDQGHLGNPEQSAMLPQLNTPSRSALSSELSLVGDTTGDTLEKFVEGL
Chain of Cytochrome P450 2C19 (P33261 whole entry): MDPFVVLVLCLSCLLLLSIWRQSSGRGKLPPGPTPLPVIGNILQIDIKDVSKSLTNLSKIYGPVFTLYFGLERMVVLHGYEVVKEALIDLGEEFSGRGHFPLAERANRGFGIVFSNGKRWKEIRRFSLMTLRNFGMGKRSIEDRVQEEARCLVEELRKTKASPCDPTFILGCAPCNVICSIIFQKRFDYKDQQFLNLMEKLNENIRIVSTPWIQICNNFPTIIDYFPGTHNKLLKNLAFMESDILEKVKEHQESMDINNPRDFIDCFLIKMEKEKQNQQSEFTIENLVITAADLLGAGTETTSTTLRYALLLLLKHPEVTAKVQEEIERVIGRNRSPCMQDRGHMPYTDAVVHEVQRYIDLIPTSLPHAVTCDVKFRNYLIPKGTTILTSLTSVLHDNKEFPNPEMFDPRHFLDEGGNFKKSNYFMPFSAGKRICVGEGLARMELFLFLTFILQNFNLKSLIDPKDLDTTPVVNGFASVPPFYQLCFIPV
Chain of Cytochrome P450 3A4 (P08684 whole entry): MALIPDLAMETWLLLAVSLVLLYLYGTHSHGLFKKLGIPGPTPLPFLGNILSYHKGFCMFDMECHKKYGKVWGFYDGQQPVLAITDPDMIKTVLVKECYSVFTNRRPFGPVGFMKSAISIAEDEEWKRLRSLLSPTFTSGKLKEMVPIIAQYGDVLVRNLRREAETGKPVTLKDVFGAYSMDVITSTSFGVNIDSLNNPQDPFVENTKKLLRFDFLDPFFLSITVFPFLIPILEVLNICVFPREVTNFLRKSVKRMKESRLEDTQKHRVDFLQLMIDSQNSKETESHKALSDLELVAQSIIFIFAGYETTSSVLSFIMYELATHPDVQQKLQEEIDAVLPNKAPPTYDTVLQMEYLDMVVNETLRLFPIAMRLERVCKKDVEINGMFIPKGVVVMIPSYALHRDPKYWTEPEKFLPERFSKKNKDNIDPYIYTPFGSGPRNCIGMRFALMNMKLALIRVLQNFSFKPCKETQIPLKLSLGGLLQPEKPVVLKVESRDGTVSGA
Chain of Tyrosine-protein kinase JAK1 (Homo sapiens) (P23458 whole entry): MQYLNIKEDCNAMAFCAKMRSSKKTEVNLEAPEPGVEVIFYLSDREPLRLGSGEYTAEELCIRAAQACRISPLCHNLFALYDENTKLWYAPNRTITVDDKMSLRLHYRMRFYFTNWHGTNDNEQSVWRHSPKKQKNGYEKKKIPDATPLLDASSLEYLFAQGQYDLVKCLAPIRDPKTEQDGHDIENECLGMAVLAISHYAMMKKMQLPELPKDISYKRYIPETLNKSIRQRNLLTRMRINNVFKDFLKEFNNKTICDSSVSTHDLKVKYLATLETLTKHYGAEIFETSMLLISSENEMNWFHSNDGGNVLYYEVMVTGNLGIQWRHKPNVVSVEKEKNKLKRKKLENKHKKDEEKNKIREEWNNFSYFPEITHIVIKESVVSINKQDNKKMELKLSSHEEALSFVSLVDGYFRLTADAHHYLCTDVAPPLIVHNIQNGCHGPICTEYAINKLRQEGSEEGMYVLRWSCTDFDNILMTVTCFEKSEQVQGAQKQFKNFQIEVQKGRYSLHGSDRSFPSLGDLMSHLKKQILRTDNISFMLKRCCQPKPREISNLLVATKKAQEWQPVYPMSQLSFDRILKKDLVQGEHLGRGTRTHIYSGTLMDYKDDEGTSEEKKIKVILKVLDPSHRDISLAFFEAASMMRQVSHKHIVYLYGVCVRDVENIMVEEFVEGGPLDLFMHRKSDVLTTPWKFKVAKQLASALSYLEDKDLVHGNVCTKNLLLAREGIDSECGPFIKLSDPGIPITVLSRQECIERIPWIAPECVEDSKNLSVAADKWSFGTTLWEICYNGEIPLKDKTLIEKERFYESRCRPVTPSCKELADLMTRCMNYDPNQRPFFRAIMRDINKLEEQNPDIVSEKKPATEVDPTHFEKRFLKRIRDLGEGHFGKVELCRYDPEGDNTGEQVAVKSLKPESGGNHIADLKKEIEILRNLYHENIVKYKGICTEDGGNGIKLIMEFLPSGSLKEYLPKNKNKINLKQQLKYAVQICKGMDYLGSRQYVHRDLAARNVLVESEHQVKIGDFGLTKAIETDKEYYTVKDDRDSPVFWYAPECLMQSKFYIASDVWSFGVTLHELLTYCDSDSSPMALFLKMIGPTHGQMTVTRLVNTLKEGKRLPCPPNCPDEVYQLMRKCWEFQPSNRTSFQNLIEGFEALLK
Chain of Cytochrome P450 2C9 (P11712 whole entry): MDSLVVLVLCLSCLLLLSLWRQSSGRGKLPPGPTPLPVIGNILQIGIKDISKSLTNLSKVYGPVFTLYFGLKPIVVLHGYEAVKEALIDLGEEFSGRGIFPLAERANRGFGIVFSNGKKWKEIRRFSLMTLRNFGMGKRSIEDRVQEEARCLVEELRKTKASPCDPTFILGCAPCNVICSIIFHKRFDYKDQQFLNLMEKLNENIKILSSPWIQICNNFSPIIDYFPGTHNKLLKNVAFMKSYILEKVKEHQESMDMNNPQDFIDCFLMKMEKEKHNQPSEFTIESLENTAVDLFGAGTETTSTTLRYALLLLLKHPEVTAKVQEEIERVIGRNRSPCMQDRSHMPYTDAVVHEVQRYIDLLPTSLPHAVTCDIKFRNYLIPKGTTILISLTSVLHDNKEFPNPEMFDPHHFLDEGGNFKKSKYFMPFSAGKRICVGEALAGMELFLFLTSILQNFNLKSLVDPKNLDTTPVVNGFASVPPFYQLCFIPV

In the case of Cc1noc(C)c1-c1ccc2[nH]c(=O)cc(NCc3ccccc3Br)c2c1, the GI50 (MV4-11) is reported as 3.5 µM and the Kd [1] is reported as 0.21 µM.

COc1cccc(CNc2cc(=O)[nH]c3ccc(-c4c(C)noc4C)cc23)c1 gave a GI50 (MV4-11) of 1.58 µM and a Kd [1] of 0.095 µM.

Work on COc1ccccc1CNc1cc(=O)[nH]c2ccc(-c3c(C)noc3C)cc12 yielded a GI50 (MV4-11) of 1.04 µM and a Kd [1] of 0.035 µM.

Compound Cc1noc(C)c1-c1ccc2[nH]c(=O)cc(-c3ccccc3)c2c1 has a GI50 (MV4-11) of 16 µM, an IC50 [2] of 3.1 µM and a Kd [1] of 1.3 µM.

Cc1noc(C)c1-c1ccc2[nH]c(=O)cc(NCc3ccccc3)c2c1 showed an AUC(0-t) [3] of 25100 ng·h/mL, a Tmax [4] of 0.5 h and a Cmax [5] of 289 ng/mL. The half-life [6] was 1.39 h, the AUC(0-t) [7] was 755 ng·h/mL and the Tmax [8] was 1.5 h. For the same compound, the Cmax [9] was 9340 ng/mL, the half-life [10] was 2 h and the AUC(0-t) [11] was 34600 ng·h/mL. For the same compound, the GI50 (MV4-11) was 0.595 µM, the half-life [12] was 2.33 h and the Cmax [13] was 7770 ng/mL. It also gave a Tmax [14] of 1 h, an AUC(0-t) [15] of 178000 ng·h/mL and a half-life [16] of 1.02 h. For the same compound, the Cmax [17] was 60900 ng/mL, the Tmax [18] was 2 h and the IC50 (Cytochrome P450 1A2) was greater than 30 µM. For the same compound, the IC50 (Cytochrome P450 2C9) was 6.77 µM, the IC50 (Cytochrome P450 2C19) was greater than 30 µM and the IC50 (Cytochrome P450 2D6) was greater than 30 µM. The IC50 (Cytochrome P450 3A4) was greater than 30 µM, the half-life [19] was 0.202 h and the half-life [20] was 0.412 h. The inhibition [21] was greater than 65%, the inhibition [22] was greater than 65% and the inhibition [23] was “Active”. The inhibition [24] was “Active”, the inhibition (Peregrin (Homo sapiens)) was “Active” and the inhibition [25] was “Active”. For the same compound, the IC50 [2] was 1.1 µM, the Kd [1] was 0.044 µM and the Activity [26] was “Non-Toxic”. The Activity [27] was “Non-Toxic” and the inhibition in vivo at 50 mg/kg (Kasumi 1) was 60%.

With Cc1noc(C)c1-c1ccc2[nH]c(=O)cc(NCc3cccc(C(F)(F)F)c3)c2c1 the Kd [1] was 0.22 µM.

Cc1noc(C)c1-c1ccc2[nH]c(=O)cc(NCc3cccc(Cl)c3)c2c1 showed a GI50 (MV4-11) of 1.22 µM and a Kd [1] of 0.028 µM.

With Cc1noc(C)c1-c1ccc2[nH]c(=O)cc(N3CCOCC3)c2c1 the Kd [1] was 0.57 µM.

Work on Cc1noc(C)c1-c1ccc2[nH]c(=O)cc(O)c2c1 yielded a GI50 (MV4-11) greater than 100 µM, an IC50 [2] of 16 µM and a Kd [1] of 3.4 µM.

Compound Cc1noc(C)c1-c1ccc2[nH]c(=O)cc(NCc3ccccc3F)c2c1 has a Kd [1] of 0.13 µM.
